# Reference: patent US6812230B2, “Non-peptide CCR1 receptor antagonists for the treatment of progressive renal fibrosis” (Schering Aktiengesellschaft, priority 2001, dated 2004)
# How the values were obtained:
# [1] = test system: renal CCR1, CCR2, CCR5 and collagen I mRNA; assay: Mouse UUO model: renal chemokine receptor and collagen I mRNA expression by real-time quantitative RT-PCR; type: in vivo, C57BL/6 mice; conditions: 10 days following UUO
# Procedure: (§1) Contralateral kidneys served as intraindividual controls.
# From each mouse, a specimen of both kidneys was snap frozen in liquid nitrogen and stored at −80° C. Total RNA was prepared as described in Chomczynski, P. and Sacci, N., Anal. Biochem. (1987), Vol. 162, pp. 156-159. The RNA pellet was air-dried, dissolved in DEPC-treated water, and stored at −80° C. One μg of total RNA was subjected to random-primed (Hexamer, Roche) reverse transcription at 42° C. for 1 hour using a modified MMLV reverse transcriptase (Superscript, Life Technologies). Real time RT-PCR was performed on a TaqMan ABI 7700 Sequence Detection System (PE Biosystems) using a heat-activated Taq DNA polymerase (Amplitaq Gold, PE Biosystems). Thermal cycler conditions contained holds at 50° C. for 2 minutes and 95° C. for 10 minutes followed by 40 cycles of 95° C. for 15 seconds and 60° C. for 60 seconds. GAPDH was used as reference gene. The following oligonucleotide primers (300 nM) and probes (100 nM) (PE Biosystems) were used: (a) murine collagen 1α1 (gb X54876; bp 1984-2102); forward primer: 5′-[…]-3′ (SEQ ID NO: 1); reverse primer: 5′-[…]-3′ (SEQ ID NO: 2); internal fluorescence labeled probe (FAM): 5′-[…]-3′ (SEQ ID NO: 3); (b) murine GAPDH (gb M32599, bp 730-836); forward primer: 5′-[…]-3′ (SEQ ID NO: 4); reverse primer: 5′-[…]-3′ (SEQ ID NO: 5); internal fluorescence labeled probe (VIC): 5′-[…]-3′ (SEQ ID NO: 6); (c) murine CCR1 (gb NM_009912, bp 487-586); forward primer: 5′-[…]-3′ (SEQ ID NO: 7); reverse primer: 5′-[…]-3′ (SEQ ID NO: 8); internal fluorescence labeled probe (T1): 5′-[…]-3′ (SEQ ID NO: 9); (d) murine CCR2 (gb NM_009915, bp 984-1095); forward primer: 5′-[…]-3′ (SEQ ID NO: 10); reverse primer: 5′-[…]-3′ (SEQ ID NO: 11); internal fluorescence labeled probe (T1, FAM): 5′-[…]-3′ (SEQ ID NO: 12); and (e) murine CCR5 (gb D83648, bp 1065-1191); forward primer: 5′-[…]-3′ (SEQ ID NO: 13); reverse primer: 5′-[…]-3′ (SEQ ID NO: 14); internal fluorescence labeled probe (T1, FAM): 5′-[…]-3′ (SEQ ID NO: 15).
# [2] = test system: collagen I protein; assay: Mouse UUO model: collagen I protein expression by Western blotting; type: in vivo, C57BL/6 mice; conditions: 10 days following UUO (UUO BX 1-10 d), Western blot
# Procedure: as §1
# From each mouse, a specimen of both kidneys was snap frozen in liquid nitrogen and stored at −80° C. Kidneys were homogenized in RIPA buffer (50 mM Tris-HCl, pH 8.0, 1% Nonidet P40, 0.5% sodium deoxycholate, 150 mM NaCl, 0.1% SDS, complete Protease-inhibitor tablet (Roche)). Extracted proteins were boiled in loading buffer for 10 minutes, resolved by 8% SDS-PAGE under reducing conditions and transferred to an Immobilon-P membrane (Millipore). After blocking, the filter was incubated with the rabbit polyclonal anti-collagen I antibody (1:1000 in blocking solution, Chemicon) and immune complexes were visualized using horseradish peroxidase-conjugated goat anti-rabbit antibody (1:5000 in blocking solution, Jackson ImmunoResearch) and then processed for detection by enhanced chemiluminescence (ECL, Amersham Pharmacia).
compound,measurement,setting,value
"C[C@@H]1CN(Cc2ccc(F)cc2)CCN1C(=O)COc1ccc(Cl)cc1NC(N)=O [BX471, (2R)-1-((4-chloro-2-(ureido)phenoxy)methyl)carbonyl-2-methyl-4-(4-fluorobenzyl)piperazine]",renal collagen I mRNA expression in obstructed kidneys vs vehicle,[1]; p<0.05,significantly reduced
same,renal CCR5 mRNA expression in obstructed kidneys vs vehicle,[1]; p=0.003,significantly reduced
same,renal CCR1 mRNA expression in obstructed kidneys vs vehicle,[1]; p=0.005,significantly reduced
same,renal CCR2 mRNA expression in obstructed kidneys vs vehicle,[1]; p=0.07,"reduced, although this decrease did not reach statistical significance"
same,collagen I protein in renal extracts from the obstructed kidneys vs vehicle,[2],decrease
